# Measured values as given in patent US20160296499A1, “Spiroindoline Antiparasitic Derivatives” (ZOETIS SERVICES LLC, priority 2013, published 2016).
# Read-outs that look alike come from different tables or passages of the source.
# Legend:
# [1] = tested on: Haemonchus contortus L3; test: Haemonchus contortus, Larvae Stage 3 (HcL3) In Vitro Assay; conditions: Haemonchus contortus
# [2] = tested on: Dirofilaria immitis microfilariae; test: Dirofilaria immitis, Microfilariae (DiMF) In Vitro Assay; conditions: Dirofilaria immitis
# [3] = target: T1, bovine vesicular acetylcholine transporter (VAChT) (Bos taurus, UniProt E1BK36); test: Radioligand Binding Assay; conditions: Bovine binding Ki, CHO-K1 membranes with recombinant bovine VAChT, [3H]Compound X6 0.3 nM
# T1 sequence (E1BK36 1-524): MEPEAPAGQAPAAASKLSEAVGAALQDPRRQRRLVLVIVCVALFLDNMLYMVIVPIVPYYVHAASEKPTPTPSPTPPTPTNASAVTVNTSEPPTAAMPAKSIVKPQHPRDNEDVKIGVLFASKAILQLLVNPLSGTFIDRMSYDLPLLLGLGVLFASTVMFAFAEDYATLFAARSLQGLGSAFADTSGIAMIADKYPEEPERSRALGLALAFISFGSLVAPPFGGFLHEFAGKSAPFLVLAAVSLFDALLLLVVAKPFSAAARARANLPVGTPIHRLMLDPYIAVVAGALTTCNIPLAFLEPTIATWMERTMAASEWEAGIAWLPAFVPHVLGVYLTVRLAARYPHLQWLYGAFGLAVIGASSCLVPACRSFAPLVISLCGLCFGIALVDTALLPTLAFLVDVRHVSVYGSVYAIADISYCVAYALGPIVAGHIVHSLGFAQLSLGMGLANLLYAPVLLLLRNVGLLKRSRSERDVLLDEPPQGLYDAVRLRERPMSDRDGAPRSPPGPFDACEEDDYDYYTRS
# Procedure: To measure binding affinity, CHO-K1 cells recombinantly expressing the bovine VAChT was generated as a stable cell line and subsequently used to produce membrane preparations.
# Radioligand binding assays were conducted in disposable polypropylene 96-well plates. VAChT competition assays were initiated by the addition of bovine recombinant membrane homogenate (50 μg/well) in assay buffer (50 mM Tris-HCl, 120 mM NaCl, 5 mM KCl, 1 mM MgCl, and 2 mM CaCl, pH 7.4) containing [^3H]Compound X6 (0.3 nM) with or without competing ligand. The assay was allowed to equilibrate for 120 minutes at room temperature, before being filtered onto GF/C unifilter plates pre-coated in 0.3% polyethylenimine (Perkin Elmer Life and Analytical Sciences, Boston, Mass.) with a Filtermate 96 harvester (PerkinElmer Life and Analytical Sciences). Filters were washed in ice-cold 50 mM Tris-HCl, pH 7.4 buffer and then counted for radioactivity in a TopCount microplate scintillation counter after addition of 50 μL Microscint 20 (PerkinElmer). Non-specific binding was measured in the presence of 10 μM Compound X6. Apparent dissociation constants (Ki values) from the competition experiments were calculated using an iterative nonlinear regression curve-fitting program (GraphPAD Prism 6.0 Software, San Diego, Calif.) and are reported in Table 2.
# [4] = 96 h, read-out: HcL3 MEC, Minimal Effective Concentration whereby worm motility is inhibited by approximately 70%, 37° C., tested 0.001-100 μM
# [5] = 72 h, read-out: Di MF, MEC, decrease in microfilariae motility by visual assessment, curve starting at 100 μM
# [6] = 96 hours, 37° C., read-out: HcL3 MEC
smiles,measurement,setting,value
"O=C(NCc1ccccc1)N1CC2(CCN(C/C=C/c3ccc(Cl)c(Cl)c3)CC2)c2c1ccc1scnc21 [Example 15, (E)-N-benzyl-1-(3-(3,4-dichlorophenyl)allyl)spiro[piperidine-4,8′-thiazolo[4,5-e]indole]-6′(7′H)-carboxamide]",minimal effective concentration,[1]; [4],100 µM
same,minimal effective concentration,[2]; [5],4.4 µM
same,Ki,[3],610 nM
"O=C(NCc1ccc(F)cc1)N1CC2(CCN(C/C=C/c3ccc(Cl)c(Cl)c3)CC2)c2c1ccc1scnc21 [Example 16, (E)-1-(3-(3,4-dichlorophenyl)allyl)-N-(4-fluorobenzyl)spiro[piperidine-4,8′-thiazolo[4,5-e]indole]-6′(7′H)-carboxamide]",minimal effective concentration,[1]; [4],100 µM
same,minimal effective concentration,[2]; [5],3.3 µM
same,Ki,[3],7340 nM
"O=C(NCc1ccc([N+](=O)[O-])cc1)N1CC2(CCN(C/C=C/c3ccc(Cl)c(Cl)c3)CC2)c2c1ccc1scnc21 [Example 17, (E)-1-(3-(3,4-dichlorophenyl)allyl)-N-(4-nitrobenzyl)spiro[piperidine-4,8′-thiazolo[4,5-e]indole]-6′(7′H)-carboxamide]",minimal effective concentration,[1]; [4],100 µM
same,minimal effective concentration,[2]; [5],10 µM
same,Ki,[3],11600 nM
"O=C(NCc1ccc(O)cc1)N1CC2(CCN(C/C=C/c3ccc(Cl)c(Cl)c3)CC2)c2c1ccc1scnc21 [Example 18, (E)-1-(3-(3,4-dichlorophenyl)allyl)-N-(4-hydroxybenzyl)spiro[piperidine-4,8′-thiazolo[4,5-e]indole]-6′(7′H)-carboxamide]",minimal effective concentration,[1]; [4],100 µM
same,minimal effective concentration,[2]; [5],43.5 µM
same,Ki,[3],2220 nM
"O=C(NCc1ccc(Cl)cc1)N1CC2(CCN(C/C=C/c3ccc(Cl)c(Cl)c3)CC2)c2c1ccc1scnc21 [Example 20, (E)-N-(4-chlorobenzyl)-1-(3-(3,4-dichlorophenyl)allyl)spiro[piperidine-4,8′-thiazolo[4,5-e]indole]-6′(7′H)-carboxamide]",minimal effective concentration,[1]; [4],100 µM
same,minimal effective concentration,[2]; [5],13.5 µM
same,Ki,[3],2120 nM
"O=C(NCc1cnc(Cl)s1)N1CC2(CCN(C/C=C/c3ccc(Cl)c(Cl)c3)CC2)c2c1ccc1scnc21 [Example 21, (E)-N-((2-chlorothiazol-5-yl)methyl)-1-(3-(3,4-dichlorophenyl)allyl)spiro[piperidine-4,8′-thiazolo[4,5-e]indole]-6′(7′H)-carboxamide]",minimal effective concentration,[1]; [6],69.1 µM
same,minimal effective concentration,"[2]; 72 hours, read-out: Di MF",10 µM
same,Ki,[3],105 nM
"O=C(NCc1cncs1)N1CC2(CCN(C/C=C/c3ccc(Cl)c(Cl)c3)CC2)c2c1ccc1scnc21 [Example 22, (E)-1-(3-(3,4-dichlorophenyl)allyl)-N-(thiazol-5-ylmethyl)spiro[piperidine-4,8′-thiazolo[4,5-e]indole]-6′(7′H)-carboxamide]",minimal effective concentration,[1]; [4],100 µM
same,minimal effective concentration,[2]; [5],10 µM
same,Ki,[3],131 nM
"O=C(NCc1nccs1)N1CC2(CCN(C/C=C/c3ccc(Cl)c(Cl)c3)CC2)c2c1ccc1scnc21 [Example 23, (E)-1-(3-(3,4-dichlorophenyl)allyl)-N-(thiazol-2-ylmethyl)spiro[piperidine-4,8′-thiazolo[4,5-e]indole]-6′(7′H)-carboxamide]",minimal effective concentration,[1]; [4],100 µM
same,minimal effective concentration,[2]; [5],10 µM
same,Ki,[3],205 nM
"O=C(NCc1cscn1)N1CC2(CCN(C/C=C/c3ccc(Cl)c(Cl)c3)CC2)c2c1ccc1scnc21 [Example 24, (E)-1-(3-(3,4-dichlorophenyl)allyl)-N-(thiazol-4-ylmethyl)spiro[piperidine-4,8′-thiazolo[4,5-e]indole]-6′(7′H)-carboxamide]",minimal effective concentration,[1]; [4],100 µM
same,minimal effective concentration,[2]; [5],33 µM
same,Ki,[3],1100 nM
"O=C(NCC1CCCCC1)N1CC2(CCN(C/C=C/c3ccc(Cl)c(Cl)c3)CC2)c2c1ccc1scnc21 [Example 25, (E)-N-(cyclohexylmethyl)-1-(3-(3,4-dichlorophenyl)allyl)spiro[piperidine-4,8′-thiazolo[4,5-e]indole]-6′(7′H)-carboxamide]",minimal effective concentration,[1]; [4],100 µM
same,minimal effective concentration,[2]; [5],13.5 µM
same,Ki,[3],7590 nM
"Cn1cc(CNC(=O)N2CC3(CCN(C/C=C/c4ccc(Cl)c(Cl)c4)CC3)c3c2ccc2scnc32)cn1 [Example 26, (E)-1-(3-(3,4-dichlorophenyl)allyl)-N-((1-methyl-1H-pyrazol-4-yl)methyl)spiro[piperidine-4,8′-thiazolo[4,5-e]indole]-6′(7′H)-carboxamide]",minimal effective concentration,[1]; [4],10 µM
same,minimal effective concentration,[2]; [5],10 µM
same,Ki,[3],27.8 nM
"Cn1nccc1CNC(=O)N1CC2(CCN(C/C=C/c3ccc(Cl)c(Cl)c3)CC2)c2c1ccc1scnc21 [Example 27, (E)-1-(3-(3,4-dichlorophenyl)allyl)-N-((1-methyl-1H-pyrazol-5-yl)methyl)spiro[piperidine-4,8′-thiazolo[4,5-e]indole]-6′(7′H)-carboxamide]",minimal effective concentration,[1]; [6],10 µM
same,minimal effective concentration,"[2]; 72 hours, read-out: Di MF",10 µM
same,Ki,[3],22.6 nM
"Cn1ccc(CNC(=O)N2CC3(CCN(C/C=C/c4ccc(Cl)c(Cl)c4)CC3)c3c2ccc2scnc32)n1 [Example 28, (E)-1-(3-(3,4-dichlorophenyl)allyl)-N-((1-methyl-1H-pyrazol-3-yl)methyl)spiro[piperidine-4,8′-thiazolo[4,5-e]indole]-6′(7′H)-carboxamide]",minimal effective concentration,[1]; [4],100 µM
same,minimal effective concentration,[2]; [5],10 µM
same,Ki,[3],511 nM
"O=C(NCc1cocn1)N1CC2(CCN(C/C=C/c3ccc(Cl)c(Cl)c3)CC2)c2c1ccc1scnc21 [Example 29, (E)-1-(3-(3,4-dichlorophenyl)allyl)-N-(oxazol-4-ylmethyl)spiro[piperidine-4,8′-thiazolo[4,5-e]indole]-6′(7′H)-carboxamide]",minimal effective concentration,[1]; [4],100 µM
same,minimal effective concentration,[2]; [5],10 µM
same,Ki,[3],367 nM
"CC(C)CNC(=O)N1CC2(CCN(C/C=C/c3ccc(Cl)c(Cl)c3)CC2)c2c1ccc1scnc21 [Example 31, (E)-1-(3-(3,4-dichlorophenyl)allyl)-N-isobutylspiro[piperidine-4,8′-thiazolo[4,5-e]indole]-6′(7′H)-carboxamide]",minimal effective concentration,[1]; [4],100 µM
same,minimal effective concentration,[2]; [5],3.3 µM
same,Ki,[3],846 nM
"O=C(NCC1CC1)N1CC2(CCN(C/C=C/c3ccc(Cl)c(Cl)c3)CC2)c2c1ccc1scnc21 [Example 32, (E)-N-(cyclopropylmethyl)-1-(3-(3,4-dichlorophenyl)allyl)spiro[piperidine-4,8′-thiazolo[4,5-e]indole]-6′(7′H)-carboxamide]",minimal effective concentration,[1]; [4],100 µM
same,minimal effective concentration,[2]; [5],3.3 µM
same,Ki,[3],136 nM
"O=C(NCC1CCCC1)N1CC2(CCN(C/C=C/c3ccc(Cl)c(Cl)c3)CC2)c2c1ccc1scnc21 [Example 33, (E)-N-(cyclopentylmethyl)-1-(3-(3,4-dichlorophenyl)allyl)spiro[piperidine-4,8′-thiazolo[4,5-e]indole]-6′(7′H)-carboxamide]",minimal effective concentration,[1]; [4],100 µM
same,minimal effective concentration,[2]; [5],10 µM
same,Ki,[3],1640 nM
"O=C(NCc1ccnnc1)N1CC2(CCN(C/C=C/c3ccc(Cl)c(Cl)c3)CC2)c2c1ccc1scnc21 [Example 37, (E)-1-(3-(3,4-dichlorophenyl)allyl)-N-(pyridazin-4-ylmethyl)spiro[piperidine-4,8′-thiazolo[4,5-e]indole]-6′(7′H)-carboxamide]",minimal effective concentration,[1]; [4],100 µM
same,minimal effective concentration,[2]; [5],6.9 µM
same,Ki,[3],1210 nM
"O=C(NCc1ccnc(Cl)c1)N1CC2(CCN(C/C=C/c3ccc(F)cc3)CC2)c2c1ccc1scnc21 [Example 38, (E)-N-((2-chloropyridin-4-yl)methyl)-1-(3-(4-fluorophenyl)allyl)spiro[piperidine-4,8′-thiazolo[4,5-e]indole]-6′(7′H)-carboxamide]",minimal effective concentration,[1]; [4],10 µM
same,minimal effective concentration,[2]; [5],3.3 µM
same,Ki,[3],45.6 nM
"O=C(NCc1ccnc(Cl)c1)N1CC2(CCN(C/C=C/c3ccc(Cl)cc3)CC2)c2c1ccc1scnc21 [Example 39, (E)-1-(3-(4-chlorophenyl)allyl)-N-((2-chloropyridin-4-yl)methyl)spiro[piperidine-4,8′-thiazolo[4,5-e]indole]-6′(7′H)-carboxamide]",minimal effective concentration,[1]; [4],6.9 µM
same,minimal effective concentration,[2]; [5],3.3 µM
same,Ki,[3],90 nM
"O=C(NCc1ccnc(Cl)c1)N1CC2(CCN(C/C=C/c3ccc(Cl)c(Cl)c3)CC2)c2c1ccc1scnc21 [Example 40, (E)-N-((2-chloropyridin-4-yl)methyl)-1-(3-(3,4-dichlorophenyl)allyl)spiro[piperidine-4,8′-thiazolo[4,5-e]indole]-6′(7′H)-carboxamide]",minimal effective concentration,[1]; [4],4.8 µM
same,minimal effective concentration,[2]; [5],5.7 µM
same,Ki,[3],110 nM
"O=C(NCc1ccnc(Cl)c1)N1CC2(CCN(C/C=C/c3ccc(C(F)(F)F)cn3)CC2)c2c1ccc1scnc21 [Example 41, (E)-N-((2-chloropyridin-4-yl)methyl)-1-(3-(5-(trifluoromethyl)pyridin-2-yl)allyl)spiro[piperidine-4,8′-thiazolo[4,5-e]indole]-6′(7′H)-carboxamide]",minimal effective concentration,[1]; [4],> 100 µM
same,minimal effective concentration,[2]; [5],33 µM
same,Ki,[3],428 nM
